Experimental data from publication PMC6024778 (Viruses, 2018).

System: rMERS-CoV-S2
Type: cell-based, MERS-CoV

CN1CCN(CCOc2cc(OC3CCOCC3)c3c(Nc4c(Cl)ccc5c4OCO5)ncnc3c2)CC1 [Saracatinib] was tested, and the EC50 was 9 µM.
